# From ChEMBL document CHEMBL1144565, “Anti-breast cancer activity of LFM-A13, a potent inhibitor of Polo-like kinase (PLK)” (Bioorg Med Chem, 2007)
# Activity calls are given as the source filed them. The calls are words filed in the database; no cut-off is given here.
# What was measured:
# U-373MG ATCC = assay: Induction of aberrant monopolar and multipolar spindle formation in human U373 cells at 100 uM; type: functional, cell-based
# [1] = target: T1, Serine/threonine-protein kinase PLK3 (Homo sapiens, UniProt Q9H4B4); assay: Inhibition of human PLK3 in presence of 75 uM ATP
# T1 sequence (Q9H4B4 whole entry): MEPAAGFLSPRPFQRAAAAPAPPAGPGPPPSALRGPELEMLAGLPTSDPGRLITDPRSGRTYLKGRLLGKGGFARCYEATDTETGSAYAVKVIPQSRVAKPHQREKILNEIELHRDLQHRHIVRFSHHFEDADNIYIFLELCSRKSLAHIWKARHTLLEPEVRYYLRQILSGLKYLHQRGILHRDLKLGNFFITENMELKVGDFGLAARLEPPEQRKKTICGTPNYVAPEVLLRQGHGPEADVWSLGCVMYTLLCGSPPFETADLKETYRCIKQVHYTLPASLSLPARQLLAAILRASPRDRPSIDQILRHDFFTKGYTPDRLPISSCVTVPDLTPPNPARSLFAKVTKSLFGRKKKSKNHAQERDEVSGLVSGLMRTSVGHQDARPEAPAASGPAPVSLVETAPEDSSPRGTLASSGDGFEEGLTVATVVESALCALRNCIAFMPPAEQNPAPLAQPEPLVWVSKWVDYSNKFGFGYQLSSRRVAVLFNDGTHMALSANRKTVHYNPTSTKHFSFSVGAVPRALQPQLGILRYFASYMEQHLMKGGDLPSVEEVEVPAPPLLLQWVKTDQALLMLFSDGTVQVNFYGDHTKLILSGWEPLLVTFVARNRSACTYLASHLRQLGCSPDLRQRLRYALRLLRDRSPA
# Mus musculus [2] = assay: Effect on non-proliferating tissue in ip dosed CD1 mouse assessed as toxic lesions in pancreas; type: ADME, organism-based; conditions: in vivo
# Rattus norvegicus [3] = assay: Toxicity in iv dosed Lewis rat; type: organism-based; conditions: in vivo
# Mus musculus [4] = assay: Effect on non-proliferating tissue in po dosed BALB/c mouse assessed as toxic lesions in brain; type: ADME, organism-based; conditions: in vivo
# [5] = target: Phosphatidylinositol 4,5-bisphosphate 3-kinase catalytic subunit gamma isoform (Homo sapiens, UniProt P48736); assay: Inhibition of PI3Kgamma
# Phosphatidylinositol 4,5-bisphosphate 3-kinase catalytic subunit gamma isoform, sequence (P48736 whole entry, canonical isoform): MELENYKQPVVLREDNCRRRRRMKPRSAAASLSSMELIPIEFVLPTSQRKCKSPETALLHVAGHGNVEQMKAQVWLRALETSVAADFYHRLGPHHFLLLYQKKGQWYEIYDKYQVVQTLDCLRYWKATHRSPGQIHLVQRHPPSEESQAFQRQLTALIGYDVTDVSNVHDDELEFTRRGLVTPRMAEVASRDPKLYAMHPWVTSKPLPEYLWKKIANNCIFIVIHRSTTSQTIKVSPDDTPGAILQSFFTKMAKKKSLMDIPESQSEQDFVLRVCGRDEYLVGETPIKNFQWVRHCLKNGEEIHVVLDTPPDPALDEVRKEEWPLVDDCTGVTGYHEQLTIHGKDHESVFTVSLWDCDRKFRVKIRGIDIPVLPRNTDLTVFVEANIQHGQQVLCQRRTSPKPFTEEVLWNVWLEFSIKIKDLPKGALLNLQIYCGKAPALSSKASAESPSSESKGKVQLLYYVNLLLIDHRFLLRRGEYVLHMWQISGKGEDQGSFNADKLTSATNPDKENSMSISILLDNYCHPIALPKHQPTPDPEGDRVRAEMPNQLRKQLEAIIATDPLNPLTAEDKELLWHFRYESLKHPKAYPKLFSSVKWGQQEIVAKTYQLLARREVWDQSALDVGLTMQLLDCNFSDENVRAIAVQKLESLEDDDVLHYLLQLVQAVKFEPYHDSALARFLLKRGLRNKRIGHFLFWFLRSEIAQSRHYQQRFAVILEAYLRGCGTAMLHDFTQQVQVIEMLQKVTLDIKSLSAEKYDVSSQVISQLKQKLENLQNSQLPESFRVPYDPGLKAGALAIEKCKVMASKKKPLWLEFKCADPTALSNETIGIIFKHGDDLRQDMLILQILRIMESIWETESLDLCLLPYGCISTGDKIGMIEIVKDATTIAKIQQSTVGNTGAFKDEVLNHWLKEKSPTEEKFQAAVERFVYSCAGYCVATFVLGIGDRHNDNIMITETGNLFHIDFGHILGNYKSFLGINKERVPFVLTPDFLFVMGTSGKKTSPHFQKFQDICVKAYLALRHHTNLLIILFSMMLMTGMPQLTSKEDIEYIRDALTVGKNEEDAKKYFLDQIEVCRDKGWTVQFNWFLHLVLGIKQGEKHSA
# Mus musculus [6] = assay: Effect on non-proliferating tissue in po dosed BALB/c mouse assessed as toxic lesions in kidney; type: ADME, organism-based; conditions: in vivo
# [7] = target: T1, Serine/threonine-protein kinase PLK3; assay: Inhibition of human PLK3 in presence of 100 uM ATP
# [8] = target: Cyclin-dependent kinase 1 (Homo sapiens, UniProt P06493); assay: Inhibition of CDK1
# Cyclin-dependent kinase 1, sequence (P06493 whole entry): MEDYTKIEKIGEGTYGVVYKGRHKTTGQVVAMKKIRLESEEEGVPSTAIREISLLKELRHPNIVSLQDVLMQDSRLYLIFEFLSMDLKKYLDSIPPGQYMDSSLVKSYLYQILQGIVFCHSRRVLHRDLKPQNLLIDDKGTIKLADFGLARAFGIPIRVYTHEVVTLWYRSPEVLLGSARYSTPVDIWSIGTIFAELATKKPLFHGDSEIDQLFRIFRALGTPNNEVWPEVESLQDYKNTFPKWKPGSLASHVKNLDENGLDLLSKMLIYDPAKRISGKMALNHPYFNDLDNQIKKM
# Mus musculus [9] = assay: Subacute toxicity in CD1 mouse assessed as absolute neutrophil counts at 20 mg/kg, ip after 30 days; type: organism-based; design: dose 20 mg/kg, route intraperitoneal; conditions: in vivo, 720 h
# [10] = target: T1, Serine/threonine-protein kinase PLK3; assay: Inhibition of human PLK3 in presence of 50 uM ATP
# [11] = target: Serine/threonine-protein kinase Chk1 (Homo sapiens, UniProt O14757); assay: Inhibition of CHK1
# Mus musculus [12] = assay: Toxicity in po dosed BALB/c mouse; type: organism-based; conditions: in vivo
# Mus musculus [13] = assay: Subacute toxicity in CD1 mouse assessed as myeloid or lymphoid hyperplasia in bone marrow at 80 mg/kg, ip after 30 days; type: organism-based; design: dose 80 mg/kg, route intraperitoneal; conditions: in vivo, 720 h
# [14] = target: Tyrosine-protein kinase ABL1 (Homo sapiens, UniProt P00519); assay: Inhibition of ABL kinase
# Rattus norvegicus [15] = assay: Toxicity in Lewis rat assessed as absolute lymphocyte counts at 20 mg/kg, iv after 7 days; type: organism-based; design: dose 20 mg/kg, route intravenous; conditions: in vivo, 168 h
# Rattus norvegicus [16] = assay: Toxicity in Lewis rat assessed as myeloid or lymphoid hyperplasia in bone marrow at 80 mg/kg, iV after 7 days; type: organism-based; design: dose 80 mg/kg, route intravenous; conditions: in vivo, 168 h
# [17] = target: Insulin-like growth factor 1 receptor (Homo sapiens, UniProt P08069); assay: Inhibition of IGF1R
# Insulin-like growth factor 1 receptor, sequence (P08069 31-736 limits assumed): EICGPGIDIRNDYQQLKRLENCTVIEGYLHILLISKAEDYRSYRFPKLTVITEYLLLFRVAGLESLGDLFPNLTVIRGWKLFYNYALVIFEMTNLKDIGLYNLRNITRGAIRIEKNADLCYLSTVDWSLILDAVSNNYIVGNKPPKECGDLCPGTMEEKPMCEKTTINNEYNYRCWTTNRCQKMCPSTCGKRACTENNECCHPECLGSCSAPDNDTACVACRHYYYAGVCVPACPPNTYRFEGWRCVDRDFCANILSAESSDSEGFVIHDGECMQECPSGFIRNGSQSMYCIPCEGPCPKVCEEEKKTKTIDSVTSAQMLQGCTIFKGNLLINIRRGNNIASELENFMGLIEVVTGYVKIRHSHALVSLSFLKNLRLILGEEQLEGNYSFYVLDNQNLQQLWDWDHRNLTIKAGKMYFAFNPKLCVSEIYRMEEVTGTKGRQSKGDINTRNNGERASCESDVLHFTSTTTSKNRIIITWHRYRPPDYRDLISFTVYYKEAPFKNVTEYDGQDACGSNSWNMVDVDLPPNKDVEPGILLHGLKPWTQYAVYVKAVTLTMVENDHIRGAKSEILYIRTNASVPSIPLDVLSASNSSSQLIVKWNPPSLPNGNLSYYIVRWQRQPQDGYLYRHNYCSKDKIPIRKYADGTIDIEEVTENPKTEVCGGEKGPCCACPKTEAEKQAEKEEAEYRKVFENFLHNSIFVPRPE
# Insulin-like growth factor 1 receptor, sequence (P08069 741-1367 limits assumed): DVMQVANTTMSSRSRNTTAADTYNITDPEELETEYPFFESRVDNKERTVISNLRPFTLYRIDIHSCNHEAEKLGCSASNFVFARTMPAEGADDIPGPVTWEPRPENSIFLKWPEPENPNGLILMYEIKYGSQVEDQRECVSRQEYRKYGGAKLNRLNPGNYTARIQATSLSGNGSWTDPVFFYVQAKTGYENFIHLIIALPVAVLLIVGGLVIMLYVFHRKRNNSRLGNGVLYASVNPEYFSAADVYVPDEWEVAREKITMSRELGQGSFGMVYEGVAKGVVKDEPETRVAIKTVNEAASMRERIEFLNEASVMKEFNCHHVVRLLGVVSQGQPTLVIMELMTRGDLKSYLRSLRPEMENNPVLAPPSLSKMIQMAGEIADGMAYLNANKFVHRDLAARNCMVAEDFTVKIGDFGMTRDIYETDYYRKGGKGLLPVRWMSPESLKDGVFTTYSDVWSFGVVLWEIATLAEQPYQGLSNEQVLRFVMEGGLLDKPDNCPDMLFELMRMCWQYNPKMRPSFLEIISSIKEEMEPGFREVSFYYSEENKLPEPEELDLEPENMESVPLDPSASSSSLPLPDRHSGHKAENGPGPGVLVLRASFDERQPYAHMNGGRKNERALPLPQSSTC
# Mus musculus [18] = assay: Subacute toxicity in CD1 mouse assessed as myeloid or lymphoid hyperplasia in bone marrow at 40 mg/kg, ip after 30 days; type: organism-based; design: dose 40 mg/kg, route intraperitoneal; conditions: in vivo, 720 h
# Rattus norvegicus [19] = assay: Toxicity in Lewis rat assessed as absolute lymphocyte counts at 40 mg/kg, iv after 7 days; type: organism-based; design: dose 40 mg/kg, route intravenous; conditions: in vivo, 168 h
# Mus musculus [20] = assay: Subacute toxicity in CD1 mouse assessed as absolute lymphocyte counts at 80 mg/kg, ip after 30 days; type: organism-based; design: dose 80 mg/kg, route intraperitoneal; conditions: in vivo, 720 h
# Mus musculus [21] = assay: Toxicity in cumulative po dosed BALB/c mouse; type: organism-based; conditions: in vivo
# [22] = target: Mast/stem cell growth factor receptor Kit (Homo sapiens, UniProt P10721); assay: Inhibition of C-Kit kinase
# Mast/stem cell growth factor receptor Kit, sequence (P10721 whole entry): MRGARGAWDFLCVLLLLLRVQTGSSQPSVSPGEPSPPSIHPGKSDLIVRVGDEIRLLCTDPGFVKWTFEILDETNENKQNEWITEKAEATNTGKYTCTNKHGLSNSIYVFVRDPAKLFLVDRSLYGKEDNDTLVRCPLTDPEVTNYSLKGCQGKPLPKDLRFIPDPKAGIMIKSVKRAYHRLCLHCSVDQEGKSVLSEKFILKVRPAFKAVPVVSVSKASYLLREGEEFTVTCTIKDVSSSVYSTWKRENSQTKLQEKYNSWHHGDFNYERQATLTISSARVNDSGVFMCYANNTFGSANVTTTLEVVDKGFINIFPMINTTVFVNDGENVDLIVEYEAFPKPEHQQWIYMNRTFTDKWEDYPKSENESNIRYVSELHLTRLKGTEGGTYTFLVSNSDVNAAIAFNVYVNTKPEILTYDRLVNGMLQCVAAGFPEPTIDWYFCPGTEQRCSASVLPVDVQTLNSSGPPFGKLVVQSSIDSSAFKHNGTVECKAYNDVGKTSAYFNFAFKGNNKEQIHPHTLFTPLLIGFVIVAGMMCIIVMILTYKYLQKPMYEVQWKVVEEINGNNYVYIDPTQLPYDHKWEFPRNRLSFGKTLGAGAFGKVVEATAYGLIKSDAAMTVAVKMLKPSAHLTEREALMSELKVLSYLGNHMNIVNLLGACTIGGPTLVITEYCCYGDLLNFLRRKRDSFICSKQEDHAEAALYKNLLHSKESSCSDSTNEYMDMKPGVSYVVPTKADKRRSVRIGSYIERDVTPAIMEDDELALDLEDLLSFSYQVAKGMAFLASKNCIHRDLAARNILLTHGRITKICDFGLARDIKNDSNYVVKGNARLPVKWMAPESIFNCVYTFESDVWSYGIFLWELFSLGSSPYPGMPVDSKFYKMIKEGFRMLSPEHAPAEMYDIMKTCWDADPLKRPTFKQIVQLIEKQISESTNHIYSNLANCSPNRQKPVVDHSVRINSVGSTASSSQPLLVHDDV
# [23] = target: Platelet-derived growth factor receptor (Homo sapiens, UniProt P09619+P16234); assay: Inhibition of PDGFR; type: protein-complex assay
# Mus musculus [24] = assay: Effect on non-proliferating tissue in ip dosed CD1 mouse assessed as toxic lesions in lung; type: ADME, organism-based; conditions: in vivo
# [25] = target: Mitogen-activated protein kinase 1 (Homo sapiens, UniProt P28482); assay: Inhibition of MAPK1
# Mitogen-activated protein kinase 1, sequence (P28482 whole entry): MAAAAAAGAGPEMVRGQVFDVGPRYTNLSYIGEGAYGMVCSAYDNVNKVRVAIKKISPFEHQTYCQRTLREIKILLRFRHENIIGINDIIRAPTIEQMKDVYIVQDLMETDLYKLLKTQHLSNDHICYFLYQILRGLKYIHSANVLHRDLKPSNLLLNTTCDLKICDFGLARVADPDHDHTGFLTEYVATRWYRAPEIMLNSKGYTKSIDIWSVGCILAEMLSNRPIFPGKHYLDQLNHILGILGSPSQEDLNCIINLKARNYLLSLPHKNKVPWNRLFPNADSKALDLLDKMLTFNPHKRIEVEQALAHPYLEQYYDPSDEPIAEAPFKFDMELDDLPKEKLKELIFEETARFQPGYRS
# Mus musculus [26] = assay: Acute toxicity in CD1 mouse assessed as absolute neutrophil counts at 40 mg/kg, ip after 7 days; type: organism-based; design: dose 40 mg/kg, route intraperitoneal; conditions: in vivo, 168 h
# [27] = target: Protein-tyrosine kinase 6 (Homo sapiens, UniProt Q13882); assay: Inhibition of BRK
# Mus musculus [28] = assay: Subacute toxicity in CD1 mouse assessed as absolute lymphocyte counts at 20 mg/kg, ip after 30 days; type: organism-based; design: dose 20 mg/kg, route intraperitoneal; conditions: in vivo, 720 h
# Mus musculus [29] = assay: Acute toxicity in CD1 mouse assessed as WBC counts at 40 mg/kg, ip after 7 days; type: organism-based; design: dose 40 mg/kg, route intraperitoneal; conditions: in vivo, 168 h
# Mus musculus [30] = assay: Effect on non-proliferating tissue in ip dosed CD1 mouse assessed as toxic lesions in kidney; type: ADME, organism-based; conditions: in vivo
# [31] = target: Tyrosine-protein kinase Fyn (Homo sapiens, UniProt P06241); assay: Inhibition of FYN kinase
# Rattus norvegicus [32] = assay: Toxicity in Lewis rat assessed as absolute neutrophil counts at 80 mg/kg, iv after 7 days; type: organism-based; design: dose 80 mg/kg, route intravenous; conditions: in vivo, 168 h
# Rattus norvegicus [33] = assay: Effect on non-proliferating tissue in iv dosed Lewis rat assessed as toxic lesions in lung on day 7; type: ADME, organism-based; conditions: in vivo
# [34] = target: Inhibitor of NF-kappa-B kinase (IKK) (Homo sapiens, UniProt O14920+O15111+Q9Y6K9); assay: Inhibition of IKK; type: protein-complex assay
# Mus musculus [35] = assay: Acute toxicity in CD1 mouse assessed as absolute neutrophil counts at 20 mg/kg, ip after 7 days; type: organism-based; design: dose 20 mg/kg, route intraperitoneal; conditions: in vivo, 168 h
# Mus musculus [36] = assay: Subacute toxicity in CD1 mouse assessed as absolute neutrophil counts at 80 mg/kg, ip after 30 days; type: organism-based; design: dose 80 mg/kg, route intraperitoneal; conditions: in vivo, 720 h
# Mus musculus [37] = assay: Acute toxicity in CD1 mouse assessed as myeloid or lymphoid hyperplasia in bone marrow at 20 mg/kg, ip after 7 days; type: organism-based; design: dose 20 mg/kg, route intraperitoneal; conditions: in vivo, 168 h
# BT-20 = assay: Induction of aberrant monopolar and multipolar spindle formation in human BT20 cells assessed as at 100 uM; type: functional, cell-based
# [38] = target: Cyclin-dependent kinase 3 (Homo sapiens, UniProt Q00526); assay: Inhibition of CDK3
# Cyclin-dependent kinase 3, sequence (Q00526 whole entry): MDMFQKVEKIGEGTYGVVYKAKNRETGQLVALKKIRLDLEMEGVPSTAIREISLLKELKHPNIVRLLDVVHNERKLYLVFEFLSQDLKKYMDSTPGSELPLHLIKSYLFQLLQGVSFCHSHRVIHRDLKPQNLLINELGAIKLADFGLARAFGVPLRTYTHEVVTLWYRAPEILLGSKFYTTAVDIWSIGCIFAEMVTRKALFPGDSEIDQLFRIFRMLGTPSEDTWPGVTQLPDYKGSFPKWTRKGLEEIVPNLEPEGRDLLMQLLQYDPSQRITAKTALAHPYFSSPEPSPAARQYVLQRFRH
# Danio rerio = organism: Danio rerio; assay: Effect on cell division blockade in zebrafish two-cell stage embryo assessed as proliferation arrest at 16-cell stage at 500 uM after 30 to 35 mins; type: functional, organism-based
# Rattus norvegicus [39] = assay: Toxicity in Lewis rat assessed as WBC counts at 80 mg/kg, iv after 7 days; type: organism-based; design: dose 80 mg/kg, route intravenous; conditions: in vivo, 168 h
# Mus musculus [40] = assay: Effect on non-proliferating tissue in po dosed BALB/c mouse assessed as toxic lesions in myocardium; type: ADME, organism-based; conditions: in vivo
# Mus musculus [41] = assay: Subacute toxicity in CD1 mouse assessed as myeloid or lymphoid hyperplasia in bone marrow at 20 mg/kg, ip after 30 days; type: organism-based; design: dose 20 mg/kg, route intraperitoneal; conditions: in vivo, 720 h
# Mus musculus [42] = assay: Acute toxicity in CD1 mouse assessed as WBC counts at 80 mg/kg, ip after 7 days; type: organism-based; design: dose 80 mg/kg, route intraperitoneal; conditions: in vivo, 168 h
# Mus musculus [43] = assay: Acute toxicity in CD1 mouse assessed as absolute neutrophil counts at 10 mg/kg, ip after 7 days; type: organism-based; design: dose 10 mg/kg, route intraperitoneal; conditions: in vivo, 168 h
# Rattus norvegicus [44] = assay: Toxicity in Lewis rat assessed as WBC counts at 40 mg/kg, iv after 7 days; type: organism-based; design: dose 40 mg/kg, route intravenous; conditions: in vivo, 168 h
# [45] = target: Cytoplasmic tyrosine-protein kinase BMX (Homo sapiens, UniProt P51813); assay: Inhibition of BMX kinase
smiles,measurement,setting,value
C/C(O)=C(\C#N)C(=O)Nc1cc(Br)ccc1Br,Activity,U-373MG ATCC,Active
same,IC50,[1],120 µM
same,Activity,Mus musculus [2],Non-toxic
same,LD10,Rattus norvegicus [3],> 80 mg/kg
same,Activity,Mus musculus [4],Non-toxic
same,IC50,[5],> 500 µM
same,Activity,Mus musculus [6],Non-toxic
same,IC50,[7],125 µM
same,IC50,[8],> 500 µM
same,Activity,Mus musculus [9],2.2 10^9/L
same,IC50,[10],79 µM
same,IC50,[11],> 500 µM
same,LD10,Mus musculus [12],> 100 mg/kg
same,Activity,Mus musculus [13],Non-toxic
same,IC50,[14],> 500 µM
same,Activity,Rattus norvegicus [15],9.8 10^9/L
same,Activity,Rattus norvegicus [16],Non-toxic
same,IC50,[17],> 500 µM
same,Activity,Mus musculus [18],Non-toxic
same,Activity,Rattus norvegicus [19],10.6 10^9/L
same,Activity,Mus musculus [20],4.3 10^9/L
same,LD10,Mus musculus [21],> 11200 mg/kg
same,IC50,[22],> 500 µM
same,IC50,[23],> 500 µM
same,Activity,Mus musculus [24],Non-toxic
same,IC50,[25],> 500 µM
same,Activity,Mus musculus [26],1.6 10^9/L
same,IC50,[27],267 µM
same,Activity,Mus musculus [28],3.9 10^9/L
same,Activity,Mus musculus [29],7 10^9/L
same,Activity,Mus musculus [30],Non-toxic
same,IC50,[31],240 µM
same,Activity,Rattus norvegicus [32],1.8 10^9/L
same,Activity,Rattus norvegicus [33],Non-toxic
same,IC50,[34],> 500 µM
same,Activity,Mus musculus [35],1.4 10^9/L
same,Activity,Mus musculus [36],1.7 10^9/L
same,Activity,Mus musculus [37],Non-toxic
same,Activity,BT-20,Active
same,IC50,[38],> 500 µM
same,Activity,Danio rerio,Active
same,Activity,Rattus norvegicus [39],11.7 10^9/L
same,Activity,Mus musculus [40],Non-toxic
same,Activity,Mus musculus [41],Non-toxic
same,Activity,Mus musculus [42],6.6 10^9/L
same,Activity,Mus musculus [43],1.3 10^9/L
same,Activity,Rattus norvegicus [44],12.9 10^9/L
same,IC50,[45],281 µM
